Here are results for 1 molecule from patent US11197836B2, “Topical vasoconstrictor preparations and methods for protecting cells during cancer chemotherapy and radiotherapy” (WISCONSIN ALUMNI RESEARCH FOUNDATION, priority 2005, dated 2021).

Each structure is given as a SMILES string.

This series concerns rat skin. Put plainly: Penetration of topically applied dye into rat skin. The class given is in vivo. The conditions noted are these: applied to rat skin in an alcohol:water solution. The source says:
It is preferred for certain embodiments of the invention directed to skin applications to optimize ethanol, propylene glycol, and water percentages to enable sufficient delivery of epinephrine, phenylephrine, norepinephrine, or methoxamine to the skin vasculature, to achieve transient, vasculature constriction, and by so-doing, confer protection to the stem cells of the epidermis and hair follicle. The primary skin vasculature is located within the dermis, largely creating a vascular web surrounding the hair follicle bulbs (shown in FIG. 1). Topical drug delivery to this vasculature is primarily achieved by “transfolicular” delivery, i.e., topically-applied alcohol:water solutions travel within the hair shaft channels to the hair follicle bulb, and then diffuse through the stem cells that comprise the hair follicle bulb to access the dermal vasculature surrounding the bulb. For topical solutions to access dermal vasculature, a minimum percentage of alcohol in the topical delivery vehicle is preferred to enable: i) dissolution or softening of sebaceous oil present in human hair shaft channels, and ii) penetration of the oil-stratum corneum matrix.

As to `CCN(CC)c1ccc2nc3c4ccccc4c(=O)cc-3oc2c1` [Nile Red], the skin penetration entry is “penetrates both the stratum corneum and underlying epidermis”.
